Paper PMC7615656 (European journal of pharmacology, 2010)

Legend:
[1] = molecular target: recombinant rat α5β3γ2F77I receptors (Rattus norvegicus, UniProt P18508+P19969, F115I); assay: Two-electrode voltage clamp of GABA-induced chloride currents in Xenopus oocytes; type: cell-based; details: α5β3γ2F77I, ns = not significant
[2] = molecular target: recombinant rat α4β3γ2 receptors (Rattus norvegicus, UniProt P18508+P28471); assay: as above; type: cell-based; details: for efficacy (% GABA EC3): α4β3γ2, ns = not significant
[3] = molecular target: recombinant rat α3β3γ2F77I receptors (Rattus norvegicus, UniProt P18508+P20236, F115I); assay: as above; type: cell-based; details: α3β3γ2F77I, ns = not significant
Chain of recombinant rat α3β3γ2F77I receptors (P20236 29-493): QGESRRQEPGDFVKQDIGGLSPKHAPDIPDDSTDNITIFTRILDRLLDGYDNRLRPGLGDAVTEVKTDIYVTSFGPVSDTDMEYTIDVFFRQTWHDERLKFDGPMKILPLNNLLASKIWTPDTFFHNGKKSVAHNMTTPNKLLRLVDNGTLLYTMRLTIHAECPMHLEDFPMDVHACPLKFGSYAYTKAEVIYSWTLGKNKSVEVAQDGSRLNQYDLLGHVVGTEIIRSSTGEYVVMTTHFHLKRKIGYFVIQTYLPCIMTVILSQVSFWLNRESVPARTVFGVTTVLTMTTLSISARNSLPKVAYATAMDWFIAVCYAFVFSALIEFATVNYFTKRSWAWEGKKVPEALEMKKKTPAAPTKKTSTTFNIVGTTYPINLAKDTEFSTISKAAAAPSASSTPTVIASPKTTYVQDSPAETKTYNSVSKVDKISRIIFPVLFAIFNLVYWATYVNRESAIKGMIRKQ
Chain of recombinant rat α3β3γ2F77I receptors (P63079 26-473 partner): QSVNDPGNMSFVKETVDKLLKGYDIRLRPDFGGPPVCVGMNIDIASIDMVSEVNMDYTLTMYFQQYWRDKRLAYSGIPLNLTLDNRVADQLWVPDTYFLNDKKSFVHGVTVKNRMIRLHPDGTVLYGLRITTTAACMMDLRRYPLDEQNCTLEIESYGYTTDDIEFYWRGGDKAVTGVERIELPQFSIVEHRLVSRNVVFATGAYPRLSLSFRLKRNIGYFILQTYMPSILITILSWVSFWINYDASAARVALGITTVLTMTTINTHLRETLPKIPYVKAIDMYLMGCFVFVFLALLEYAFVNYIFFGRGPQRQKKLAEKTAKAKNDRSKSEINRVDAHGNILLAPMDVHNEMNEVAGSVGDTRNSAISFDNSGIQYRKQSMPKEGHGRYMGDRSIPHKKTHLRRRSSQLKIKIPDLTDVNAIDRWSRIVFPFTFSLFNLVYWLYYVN
Chain of recombinant rat α3β3γ2F77I receptors (P18508 39-466 F115I): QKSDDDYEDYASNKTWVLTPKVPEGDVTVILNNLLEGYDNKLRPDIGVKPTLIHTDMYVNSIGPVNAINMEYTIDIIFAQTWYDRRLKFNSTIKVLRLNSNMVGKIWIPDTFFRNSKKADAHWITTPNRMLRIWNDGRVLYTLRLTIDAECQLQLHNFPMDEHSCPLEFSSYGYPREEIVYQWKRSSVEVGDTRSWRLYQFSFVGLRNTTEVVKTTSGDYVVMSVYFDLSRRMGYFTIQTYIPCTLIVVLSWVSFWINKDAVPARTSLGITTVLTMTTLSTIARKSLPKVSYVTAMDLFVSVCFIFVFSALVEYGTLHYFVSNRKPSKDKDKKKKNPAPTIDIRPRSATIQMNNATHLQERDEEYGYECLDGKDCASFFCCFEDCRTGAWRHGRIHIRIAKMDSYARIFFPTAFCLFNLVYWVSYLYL

[4] = molecular target: recombinant rat α6β3γ2 receptors (Rattus norvegicus, UniProt P18508+P30191); assay: as above; type: cell-based; details: for efficacy (% GABA EC3): α6β3γ2, ns = not significant
[5] = molecular target: recombinant rat α2β3γ2F77I receptors (Rattus norvegicus, UniProt P18508+P23576, F115I); assay: as above; type: cell-based; details: α2β3γ2F77I, ns = not significant
[6] = molecular target: recombinant rat α2β3γ2 receptors (Rattus norvegicus, UniProt P18508+P23576); assay: as above; type: cell-based
[7] = tested on: GABAA receptors of mice containing the point mutation γ2F77I; details: receptor binding; ref Ogris et al., 2004; cited from earlier work
[8] = molecular target: recombinant rat α3β3γ2 receptors (Rattus norvegicus, UniProt P18508+P20236); assay: Two-electrode voltage clamp of GABA-induced chloride currents in Xenopus oocytes; type: cell-based; details: for efficacy (% GABA EC3): α3β3γ2, ns = not significant
Chain of recombinant rat α3β3γ2 receptors (P20236 29-493): as the sequence (P20236 29-493) above
Chain of recombinant rat α3β3γ2 receptors (P63079 26-473 partner): as the sequence (P63079 26-473 partner) above
Chain of recombinant rat α3β3γ2 receptors (P18508 39-466): as the sequence (P18508 39-466 F115I) above, with I77F counted along it

[9] = molecular target: recombinant rat α1β3γ2F77I receptors (Rattus norvegicus, UniProt P18508+P62813, F115I); assay: as above; type: cell-based; details: α1β3γ2F77I; for efficacy (% GABA EC3): ns = not significant
[10] = molecular target: recombinant rat α1β3γ2 receptors (Rattus norvegicus, UniProt P18508+P62813); assay: as above; type: cell-based; details: for efficacy (% GABA EC3): ns = not significant
Chain of recombinant rat α1β3γ2 receptors (P62813 28-455): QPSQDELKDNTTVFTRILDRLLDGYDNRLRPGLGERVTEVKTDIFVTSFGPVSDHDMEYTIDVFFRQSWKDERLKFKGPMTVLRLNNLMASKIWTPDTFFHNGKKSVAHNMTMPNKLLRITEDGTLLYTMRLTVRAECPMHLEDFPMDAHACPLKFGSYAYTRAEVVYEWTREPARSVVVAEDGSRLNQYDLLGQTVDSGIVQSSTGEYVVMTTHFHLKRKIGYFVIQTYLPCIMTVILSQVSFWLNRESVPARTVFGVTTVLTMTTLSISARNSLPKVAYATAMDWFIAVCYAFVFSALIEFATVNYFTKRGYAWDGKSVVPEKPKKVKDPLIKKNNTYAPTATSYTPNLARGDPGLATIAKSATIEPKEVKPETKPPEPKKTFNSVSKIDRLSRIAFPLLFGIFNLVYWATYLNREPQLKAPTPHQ
Chain of recombinant rat α1β3γ2 receptors (P63079 26-473 partner): as the sequence (P63079 26-473 partner) above
Chain of recombinant rat α1β3γ2 receptors (P18508 39-466): as the sequence (P18508 39-466 F115I) above, with I77F counted along it

[11] = tested on: GABAA receptors containing the γ2F77I mutation; assay: Modulation of GABA EC3 in receptors containing the γ2F77I mutation; type: cell-based, rat; details: 10 μM; some γ2F77I receptors
[12] = molecular target: recombinant rat α5β3γ2 receptors (Rattus norvegicus, UniProt P18508+P19969); assay: Two-electrode voltage clamp of GABA-induced chloride currents in Xenopus oocytes; type: cell-based; details: for efficacy (% GABA EC3): α5β3γ2, ns = not significant
[13] = molecular target: recombinant rat α6β3γ2F77I receptors (Rattus norvegicus, UniProt P18508+P30191, F115I); assay: as above; type: cell-based; details: ns = not significant
[14] = molecular target: recombinant rat α4β3γ2F77I receptors (Rattus norvegicus, UniProt P18508+P28471, F115I); assay: as above; type: cell-based; details: ns = not significant
α3β3γ2 receptors = details: 10 μM, ref Atack et al., 2006; cited from earlier work
α5 receptors = details: ref Atack et al., 2006; Quirk et al., 1996; cited from earlier work
α1β3 receptors = α1β3 receptors (Rattus norvegicus, UniProt P62813+P63079); assay: Zn2+ reduction of GABA-induced chloride flux; type: cell-based; details: 10 μM Zn2+, means ± SEM, n=4
Chain of α1β3 receptors (P62813 28-455): as the sequence (P62813 28-455) above
Chain of α1β3 receptors (P63079 26-473): as the sequence (P63079 26-473 partner) above

[15] = 100 nM, α2β3γ2, ns = not significant
[16] = read-out: efficacy (% GABA EC3)

## CN1CCN(C(=O)OC2c3nccnc3C(=O)N2c2ccc(Cl)cn2)CC1 (stereo not shown) [Zopiclone, 4-methyl-1-piperazinecarboxylic acid-6-(5-chloro-2-pyridinyl)-6,7-dihydro-7-oxo-5H-pyrrolo[3,4-b]pyrazin-5-yl ester]
[1]; 100 nM
  efficacy (% GABA EC3): ns
[1]; 1 μM
  efficacy (% GABA EC3): 114 ± 2 % GABA EC3
[1]; 10 μM
  efficacy (% GABA EC3): 144 ± 1 % GABA EC3
[2]; 1 μM
  efficacy (% GABA EC3): ns
[2]; 10 μM
  efficacy (% GABA EC3): ns
[2]; 10 μM, listed as zopiclone
  efficacy (% GABA EC3): did not significantly stimulate
[3]; 100 nM
  efficacy (% GABA EC3): ns
[3]; 1 μM
  efficacy (% GABA EC3): 107 ± 1 % GABA EC3
[3]; 10 μM
  efficacy (% GABA EC3): 119 ± 4 % GABA EC3
[4]; 1 μM
  efficacy (% GABA EC3): ns
[4]; 10 μM
  efficacy (% GABA EC3): ns
[4]; 10 μM, listed as zopiclone
  efficacy (% GABA EC3): did not significantly stimulate
[5]; 100 nM
  efficacy (% GABA EC3): ns
[5]; 1 μM
  efficacy (% GABA EC3): ns
[5]; 10 μM
  efficacy (% GABA EC3): 121 ± 2 % GABA EC3
[6]
  EC50: 400 ± 64 nM
[6]; [15]
  efficacy (% GABA EC3): 157 ± 9 % GABA EC3
[6]; 1 μM, α2β3γ2, ns = not significant
  efficacy (% GABA EC3): 289 ± 16 % GABA EC3
[6]; 10 μM, α2β3γ2, ns = not significant
  efficacy (% GABA EC3): 356 ± 22 % GABA EC3
[7]
  shift in affinity caused by γ2F77I: ~100 fold
[8]
  EC50: > 793 nM
[8]; 100 nM
  efficacy (% GABA EC3): 161 ± 10 % GABA EC3
[8]; 1 μM
  efficacy (% GABA EC3): 377 ± 24 % GABA EC3
[8]; 10 μM
  efficacy (% GABA EC3): 559 ± 30 % GABA EC3
[9]; 100 nM
  efficacy (% GABA EC3): ns
[9]; 1 μM
  efficacy (% GABA EC3): ns
[9]; 10 μM
  efficacy (% GABA EC3): 125 ± 3 % GABA EC3
[10]
  EC50: 163 ± 19 nM
[10]; 100 nM, α1β3γ2
  efficacy (% GABA EC3): 211 ± 17 % GABA EC3
[10]; 1 μM, α1β3γ2
  efficacy (% GABA EC3): 347 ± 35 % GABA EC3
[10]; 10 μM, α1β3γ2
  efficacy (% GABA EC3): 383 ± 36 % GABA EC3
[11]
  stimulation of GABA-induced chloride flux: 20–40%
[12]
  EC50: 176 ± 1 nM
[12]; 100 nM
  efficacy (% GABA EC3): 191 ± 8 % GABA EC3
[12]; 1 μM
  efficacy (% GABA EC3): 313 ± 18 % GABA EC3
[12]; 10 μM
  efficacy (% GABA EC3): 345 ± 22 % GABA EC3

## CCOC(=O)c1ncn2c1C1CCCN1C(=O)c1cc(OC)ccc1-2 [L-655,708, ethyl-7-methoxy-11,12,13,13a-tetrahydro-9-oxo-9H-imidazo[1,5-a]pyrrolo[2,1-c][1,4] benzodiazepine-1-carboxylate]
[13]; 10 nM
  efficacy (% GABA EC3): ns
[13]; 100 nM
  efficacy (% GABA EC3): ns
[13]; 1 μM
  efficacy (% GABA EC3): ns
[13]; 10 μM
  efficacy (% GABA EC3): ns
[14]; 10 nM
  efficacy (% GABA EC3): ns
[14]; 100 nM
  efficacy (% GABA EC3): ns
[14]; 1 μM
  efficacy (% GABA EC3): ns
[14]; 10 μM
  efficacy (% GABA EC3): ns
α3β3γ2 receptors
  reduction of GABA-induced chloride flux to: 90%
α5 receptors
  selectivity for α5 receptors in receptor binding assays: 30–50 fold
[1]; 10 nM
  efficacy (% GABA EC3): ns
[1]; 100 nM
  efficacy (% GABA EC3): ns
[1]; 1 μM
  efficacy (% GABA EC3): ns
[1]; 10 μM
  efficacy (% GABA EC3): ns
[2]
  EC50: 168 ± 71 nM
[2]; 10 nM
  efficacy (% GABA EC3): ns
[2]; [16]
  activity at 0.1 µM: 143 ± 12%
  activity at 1 µM: 215 ± 4%
  activity at 10 µM: 224 ± 15%
[3]; 10 nM
  efficacy (% GABA EC3): ns
[3]; 100 nM
  efficacy (% GABA EC3): ns
[3]; 1 μM
  efficacy (% GABA EC3): ns
[3]; 10 μM
  efficacy (% GABA EC3): ns
[4]
  EC50: > 470 nM
[4]; [16]
  activity at 0.01 µM: 118 ± 4%
  activity at 0.1 µM: 131 ± 12%
  activity at 1 µM: 176 ± 25%
  activity at 10 µM: 199 ± 31%
[5]; 10 nM
  efficacy (% GABA EC3): ns
[5]; 100 nM
  efficacy (% GABA EC3): ns
[5]; 1 μM
  efficacy (% GABA EC3): ns
[5]; 10 μM
  efficacy (% GABA EC3): ns
[6]; 10 nM, α2β3γ2, ns = not significant
  efficacy (% GABA EC3): ns
[6]; [15]
  efficacy (% GABA EC3): ns
[6]; read-out: efficacy (% GABA EC3), 1 μM, α2β3γ2, ns = not significant
  activity at 1 µM: 93 ± 1%
[6]; read-out: efficacy (% GABA EC3), 10 μM, α2β3γ2, ns = not significant
  activity at 10 µM: 90%
[7]
  shift in affinity caused by γ2F77I: > 1000 fold
[8]
  EC50: 10 ± 3 nM
[8]; [16]
  activity at 0.01 µM: 113 ± 1%
  activity at 0.1 µM: 126 ± 1%
  activity at 1 µM: 131 ± 4%
  activity at 10 µM: 126 ± 4%
[9]; 10 nM
  efficacy (% GABA EC3): ns
[9]; 100 nM
  efficacy (% GABA EC3): ns
[9]; 1 μM
  efficacy (% GABA EC3): ns
[9]; 10 μM
  efficacy (% GABA EC3): ns
[10]; 10 nM, α1β3γ2
  efficacy (% GABA EC3): ns
[10]; 100 nM, α1β3γ2
  efficacy (% GABA EC3): ns
[10]; 1 μM, α1β3γ2
  efficacy (% GABA EC3): ns
[10]; 10 μM, α1β3γ2
  efficacy (% GABA EC3): 90 ± 4 % GABA EC3
[10]; [16]
  activity at 10 µM: 90%
[12]; 10 nM
  efficacy (% GABA EC3): ns
[12]; [16]
  activity at 0.1 µM: 91 ± 1%
  activity at 1 µM: 84 ± 5%
  activity at 10 µM: 66 ± 7%

## [Zn+2] [Zn^2+]
α1β3 receptors
  GABA-induced chloride flux reduced to: 5.5 ± 1%
[9]; 10 μM Zn2+, means ± SEM, n=4
  GABA-induced chloride flux reduced to: 75.4 ± 3%
[10]; 10 μM Zn2+, α1β3γ2, means ± SEM, n=4
  GABA-induced chloride flux reduced to: 70.3 ± 3%
